Measured values: US20240067693A1, “POLYPEPTIDES AND USES THEREOF” (MEDIMMUNE LIMITED, priority 2020, published 2024)
Numbered stars: 1 amine (or outer) side, 2 acyl side, 3 side chain; on linkers, the order of the positions; unused ones are H or OH. Bridge positions count the residues as written; N and C are the ends. Square brackets hold non-standard residues; d marks the D form. Side chains are listed from the residue outwards. Peptide text beside a SMILES is read from it. * marks the point of attachment. C18 diacid = O=C(O)CCCCCCCCCCCCCCCCC(=O)*; γGlu = O=C(O)[C@H](CCC(=O)[*:2])N[*:1]; Aib = CC(C)(N)C(=O)O

Experiments:
[1] = target: T1, human calcitonin receptor (hCTR) (Homo sapiens, UniProt P30988); experiment: cAMP production in 1321N1 cells with stable recombinant expression of human calcitonin receptor (hCTR); type: cell-based; settings: cAMP, 1321N1 cells, assay buffer with 0.1% BSA; read-out: EC50 (pM) hCTR
T1 construct: expressed in transfected cells
T1 sequence (P30988 25-474): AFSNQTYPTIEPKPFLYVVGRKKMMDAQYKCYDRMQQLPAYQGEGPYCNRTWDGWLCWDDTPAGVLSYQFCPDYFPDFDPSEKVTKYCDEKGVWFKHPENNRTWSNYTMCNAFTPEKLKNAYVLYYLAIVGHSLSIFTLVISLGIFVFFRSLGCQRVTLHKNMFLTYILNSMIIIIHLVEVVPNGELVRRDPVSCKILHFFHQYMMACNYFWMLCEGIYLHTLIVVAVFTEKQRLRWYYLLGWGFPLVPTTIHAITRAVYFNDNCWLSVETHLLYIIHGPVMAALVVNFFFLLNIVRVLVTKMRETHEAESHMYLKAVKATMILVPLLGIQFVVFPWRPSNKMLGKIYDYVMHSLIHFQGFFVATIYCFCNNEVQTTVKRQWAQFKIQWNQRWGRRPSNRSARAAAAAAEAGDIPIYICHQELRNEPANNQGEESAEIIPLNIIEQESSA
Summary of the method: (§1)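 Thawed cells in HBSS/0.1% BSA/25 mM HEPES pH 7.4 with 0.5 mM IBMX were incubated with peptides 30 min at room temperature; cAMP read by HTRF. EC50 from 4-parameter fit of % activation relative to maximal amylin or calcitonin effect.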

[2] = target: T2, human amylin receptor (calcitonin receptor co-expressed with receptor activity modifying protein, RAMP3) (hAMYR3) (Homo sapiens, UniProt O60896+P30988); experiment: cAMP production in 1321N1 cells with stable recombinant expression of human amylin receptor (hAMYR3); type: cell-based; settings: for Ratio (selectivity hAMYR vs hCTR, ratio of EC50 values at the two receptors): EC50 hCTR / EC50 hAMYR3; for EC50: cAMP, 1321N1 cells, assay buffer with 0.1% BSA, read-out: EC50 (pM) hAMYR3
T2 construct: expressed in transfected cells
T2 sequence (P30988 25-474): T1 sequence (P30988 25-474)
T2 sequence (O60896 24-148 partner): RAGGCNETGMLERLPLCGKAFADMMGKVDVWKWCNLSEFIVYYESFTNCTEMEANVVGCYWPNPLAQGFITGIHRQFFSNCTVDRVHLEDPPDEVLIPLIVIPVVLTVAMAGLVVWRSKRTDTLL
Summary of the method: as §1

SMILES: CC[C@H](C)[C@H](NC(=O)[C@@H]1CCCN1C(=O)CNC(=O)[C@H](Cc1ccccc1)NC(=O)[C@H](CC(N)=O)NC(=O)C(C)(C)NC(=O)[C@H](CO)NC(=O)[C@H](CO)NC(=O)[C@H](Cc1c[nH]cn1)NC(=O)[C@H](CCCNC(=N)N)NC(=O)[C@H](CC(C)C)NC(=O)[C@H](Cc1ccccc1)NC(=O)[C@H](CC(N)=O)NC(=O)[C@H](C)NC(=O)[C@H](CC(C)C)NC(=O)[C@H](CCCNC(=N)N)NC(=O)[C@H](CCC(N)=O)NC(=O)[C@@H](NC(=O)[C@H](C)NC(=O)[C@@H]1CSSC[C@H](NC(=O)[C@@H](N)CCCCNC(=O)CC[C@H](NC(=O)CC[C@H](NC(=O)CCCCCCCCCCCCCCCCC(=O)O)C(=O)O)C(=O)O)C(=O)N[C@@H](CC(N)=O)C(=O)N[C@@H]([C@@H](C)O)C(=O)N[C@@H](C)C(=O)N[C@@H]([C@@H](C)O)C(=O)N1)[C@@H](C)O)C(=O)N[C@@H](CC(C)C)C(=O)N1CCC[C@H]1C(=O)N1CCC[C@H]1C(=O)N[C@H](C(=O)NC(C)(C)C(=O)N[C@H](C(=O)NCC(=O)N[C@@H](CO)C(=O)N[C@@H](CC(N)=O)C(=O)N[C@H](C(=O)N[C@@H](Cc1ccc(O)cc1)C(N)=O)[C@@H](C)O)C(C)C)[C@@H](C)O [Peptide 90, K(γE-γE-C18diacid)[CNTATC]ATQRLANFLRHSS(Aib)NFGPILPPT(Aib)VGSNTY-amide] (H-K([γGlu-γGlu-C18 diacid])CNTATCATQRLANFLRHSS[Aib]NFGPILPPT[Aib]VGSNTY-NH2; disulfide 2-7; N-terminus assumed)
- EC50 [1]: 15600 pM
- Ratio (selectivity hAMYR vs hCTR, ratio of EC50 values at the two receptors) [2]: 15
- EC50 [2]: 1060 pM

SMILES: CC[C@H](C)[C@H](NC(=O)[C@@H]1CCCN1C(=O)CNC(=O)[C@H](Cc1ccccc1)NC(=O)[C@H](CC(N)=O)NC(=O)C(C)(C)NC(=O)[C@H](CO)NC(=O)[C@H](CO)NC(=O)[C@H](Cc1c[nH]cn1)NC(=O)[C@@H](NC(=O)[C@H](CC(C)C)NC(=O)[C@H](Cc1ccccc1)NC(=O)[C@H](CC(N)=O)NC(=O)[C@H](C)NC(=O)[C@H](CC(C)C)NC(=O)[C@H](CCCNC(=N)N)NC(=O)[C@H](CCC(N)=O)NC(=O)[C@@H](NC(=O)[C@H](C)NC(=O)[C@@H]1CSSC[C@H](NC(=O)[C@@H](N)CCCCNC(=O)CC[C@H](NC(=O)CC[C@H](NC(=O)CCCCCCCCCCCCCCCCC(=O)O)C(=O)O)C(=O)O)C(=O)N[C@@H](CC(N)=O)C(=O)N[C@@H]([C@@H](C)O)C(=O)N[C@@H](C)C(=O)N[C@@H]([C@@H](C)O)C(=O)N1)[C@@H](C)O)C(C)C)C(=O)N[C@@H](CC(C)C)C(=O)N1CCC[C@H]1C(=O)N1CCC[C@H]1C(=O)N[C@H](C(=O)N[C@@H](CC(N)=O)C(=O)N[C@H](C(=O)NCC(=O)N[C@@H](CO)C(=O)NC(C)(C)C(=O)N[C@H](C(=O)N[C@@H](Cc1ccc(O)cc1)C(N)=O)[C@@H](C)O)C(C)C)[C@@H](C)O [Peptide 91, K(γE-γE-C18diacid)[CNTATC]ATQRLANFLVHSS(Aib)NFGPILPPTNVGS(Aib)TY-amide] (H-K([γGlu-γGlu-C18 diacid])CNTATCATQRLANFLVHSS[Aib]NFGPILPPTNVGS[Aib]TY-NH2; disulfide 2-7; N-terminus assumed)
- EC50 [1]: 2360 pM
- Ratio (selectivity hAMYR vs hCTR, ratio of EC50 values at the two receptors) [2]: 12
- EC50 [2]: 200 pM

SMILES: CC[C@H](C)[C@H](NC(=O)[C@@H]1CCCN1C(=O)CNC(=O)[C@H](Cc1ccccc1)NC(=O)[C@H](CC(N)=O)NC(=O)C(C)(C)NC(=O)[C@H](CO)NC(=O)[C@H](CO)NC(=O)[C@H](Cc1c[nH]cn1)NC(=O)[C@H](CCCNC(=N)N)NC(=O)[C@H](CC(C)C)NC(=O)[C@H](Cc1ccccc1)NC(=O)[C@H](CC(N)=O)NC(=O)[C@H](C)NC(=O)[C@H](CC(C)C)NC(=O)[C@H](CCCNC(=N)N)NC(=O)[C@H](CCC(N)=O)NC(=O)[C@@H](NC(=O)[C@H](C)NC(=O)[C@@H]1CSSC[C@H](NC(=O)[C@@H](N)CCCCNC(=O)CC[C@H](NC(=O)CC[C@H](NC(=O)CCCCCCCCCCCCCCCCC(=O)O)C(=O)O)C(=O)O)C(=O)N[C@@H](CC(N)=O)C(=O)N[C@@H]([C@@H](C)O)C(=O)N[C@@H](C)C(=O)N[C@@H]([C@@H](C)O)C(=O)N1)[C@@H](C)O)C(=O)N[C@@H](CC(C)C)C(=O)N1CCC[C@H]1C(=O)N1CCC[C@H]1C(=O)N[C@H](C(=O)N[C@@H](CC(N)=O)C(=O)N[C@H](C(=O)NCC(=O)N[C@@H](CO)C(=O)NC(C)(C)C(=O)N[C@H](C(=O)N[C@@H](Cc1ccc(O)cc1)C(N)=O)[C@@H](C)O)C(C)C)[C@@H](C)O [Peptide 92, K(γE-γE-C18diacid)[CNTATC]ATQRLANFLRHSS(Aib)NFGPILPPTNVGS(Aib)TY-amide] (H-K([γGlu-γGlu-C18 diacid])CNTATCATQRLANFLRHSS[Aib]NFGPILPPTNVGS[Aib]TY-NH2; disulfide 2-7; N-terminus assumed)
- EC50 [1]: 44400 pM
- Ratio (selectivity hAMYR vs hCTR, ratio of EC50 values at the two receptors) [2]: 130
- EC50 [2]: 341 pM

SMILES: CC(C)C[C@H](NC(=O)[C@H](CCCNC(=N)N)NC(=O)[C@H](CCC(N)=O)NC(=O)[C@@H](NC(=O)[C@H](C)NC(=O)[C@@H]1CSSC[C@H](NC(=O)[C@H](CCCCN)NC(=O)[C@@H](N)CCCCNC(=O)CC[C@H](NC(=O)CCCCCCCCCCCCCCCCC(=O)O)C(=O)O)C(=O)N[C@@H](CC(N)=O)C(=O)N[C@@H]([C@@H](C)O)C(=O)N[C@@H](C)C(=O)N[C@@H]([C@@H](C)O)C(=O)N1)[C@@H](C)O)C(=O)N[C@@H](C)C(=O)N[C@@H](CC(N)=O)C(=O)N[C@@H](Cc1ccccc1)C(=O)N[C@@H](CC(C)C)C(=O)NC(C)(C)C(=O)N[C@@H](Cc1c[nH]cn1)C(=O)N[C@@H](CO)C(=O)N[C@@H](CO)C(=O)N[C@@H](CC(N)=O)C(=O)N[C@@H](CC(N)=O)C(=O)N[C@@H](Cc1ccccc1)C(=O)NCC(=O)N1CCC[C@H]1C(=O)NC(C)(C)C(=O)N[C@@H](CC(C)C)C(=O)N1CCC[C@H]1C(=O)N1CCC[C@H]1C(=O)N[C@H](C(=O)N[C@@H](CC(N)=O)C(=O)N[C@H](C(=O)NCC(=O)N[C@@H](CO)C(=O)N[C@@H](CC(N)=O)C(=O)N[C@H](C(=O)N[C@@H](Cc1ccc(O)cc1)C(N)=O)[C@@H](C)O)C(C)C)[C@@H](C)O [Peptide 94, K(γE-C18diacid)K[CNTATC]ATQRLANFL(Aib)HSSNNFGP(Aib)LPPTNVGSNTY-amide] (H-K([γGlu-C18 diacid])KCNTATCATQRLANFL[Aib]HSSNNFGP[Aib]LPPTNVGSNTY-NH2; disulfide 3-8; N-terminus assumed)
- EC50 [1]: 1900 pM
- Ratio (selectivity hAMYR vs hCTR, ratio of EC50 values at the two receptors) [2]: 6
- EC50 [2]: 322 pM

SMILES: CC[C@H](C)[C@H](NC(=O)[C@@H]1CCCN1C(=O)CNC(=O)[C@H](Cc1ccccc1)NC(=O)[C@H](CC(N)=O)NC(=O)[C@H](CC(N)=O)NC(=O)[C@H](CO)NC(=O)[C@H](CO)NC(=O)[C@H](Cc1c[nH]cn1)NC(=O)C(C)(C)NC(=O)[C@H](CC(C)C)NC(=O)[C@H](Cc1ccccc1)NC(=O)[C@H](CC(N)=O)NC(=O)[C@H](C)NC(=O)[C@H](CC(C)C)NC(=O)[C@H](CCCNC(=N)N)NC(=O)[C@H](CCC(N)=O)NC(=O)[C@@H](NC(=O)[C@H](C)NC(=O)[C@@H]1CSSC[C@H](NC(=O)[C@H](CCCCN)NC(=O)[C@@H](N)CCCCNC(=O)CC[C@H](NC(=O)CCCCCCCCCCCCCCCCC(=O)O)C(=O)O)C(=O)N[C@@H](CC(N)=O)C(=O)N[C@@H]([C@@H](C)O)C(=O)N[C@@H](C)C(=O)N[C@@H]([C@@H](C)O)C(=O)N1)[C@@H](C)O)C(=O)NC(C)(C)C(=O)N1CCC[C@H]1C(=O)N1CCC[C@H]1C(=O)N[C@H](C(=O)N[C@@H](CC(N)=O)C(=O)N[C@H](C(=O)NCC(=O)N[C@@H](CO)C(=O)N[C@@H](CC(N)=O)C(=O)N[C@H](C(=O)N[C@@H](Cc1ccc(O)cc1)C(N)=O)[C@@H](C)O)C(C)C)[C@@H](C)O [Peptide 95, K(γE-C18diacid)K[CNTATC]ATQRLANFL(Aib)HSSNNFGPI(Aib)PPTNVGSNTY-amide] (H-K([γGlu-C18 diacid])KCNTATCATQRLANFL[Aib]HSSNNFGPI[Aib]PPTNVGSNTY-NH2; disulfide 3-8)
- EC50 [1]: 1170 pM
- Ratio (selectivity hAMYR vs hCTR, ratio of EC50 values at the two receptors) [2]: 2
- EC50 [2]: 691 pM
